{
  "source": "ChEMBL document CHEMBL3045835",
  "about": "“Comparative study of conventional and microwave-assisted synthesis of some Schiff bases and their potential as antimicrobial agents” (2012)",
  "assay_type_in_all_cases": "functional",
  "key": {"Micrococcus luteus [1]": {"test_system": "Micrococcus luteus", "assay": "Antibacterial activity against Micrococcus luteus MTCC 1538 at 1000 ug/ml after 18 hr by cup-plate method", "conditions": "MTCC 1538, 18 h, read-out: DIZ"}, "Staphylococcus aureus [2]": {"test_system": "Staphylococcus aureus", "assay": "Antibacterial activity against Staphylococcus aureus MTCC 1430 at 100 ug/ml after 18 hr by cup-plate method", "conditions": "MTCC 1430, 18 h, read-out: DIZ"}, "Escherichia coli [3]": {"test_system": "Escherichia coli", "assay": "Antibacterial activity against Escherichia coli MTCC 1573 at 500 ug/ml after 18 hr by cup-plate method", "conditions": "MTCC 1573, 18 h, read-out: DIZ"}, "Pseudomonas fluorescens [4]": {"test_system": "Pseudomonas fluorescens", "assay": "Antibacterial activity against Pseudomonas fluorescens MTCC 2421 at 500 ug/ml after 18 hr by cup-plate method", "conditions": "MTCC 2421, 18 h, read-out: DIZ"}, "Staphylococcus aureus [5]": {"test_system": "Staphylococcus aureus", "assay": "Antibacterial activity against Staphylococcus aureus MTCC 1430 at 1000 ug/ml after 18 hr by cup-plate method", "conditions": "MTCC 1430, 18 h, read-out: DIZ"}, "Pseudomonas fluorescens [6]": {"test_system": "Pseudomonas fluorescens", "assay": "Antibacterial activity against Pseudomonas fluorescens MTCC 2421 at 1000 ug/ml after 18 hr by cup-plate method", "conditions": "MTCC 2421, 18 h, read-out: DIZ"}, "Escherichia coli [7]": {"test_system": "Escherichia coli", "assay": "Antibacterial activity against Escherichia coli MTCC 1573 at 1500 ug/ml after 18 hr by cup-plate method", "conditions": "MTCC 1573, 18 h, read-out: DIZ"}, "Pseudomonas fluorescens [8]": {"test_system": "Pseudomonas fluorescens", "assay": "Antibacterial activity against Pseudomonas fluorescens MTCC 2421 at 200 ug/ml after 18 hr by cup-plate method", "conditions": "MTCC 2421, 18 h, read-out: DIZ"}, "Bacillus pumilus [9]": {"test_system": "Bacillus pumilus", "assay": "Antibacterial activity against Bacillus pumilus MTCC 1456 at 100 ug/ml after 18 hr by cup-plate method", "conditions": "MTCC 1456, 18 h, read-out: DIZ"}, "Pseudomonas aeruginosa [10]": {"test_system": "Pseudomonas aeruginosa", "assay": "Antibacterial activity against Pseudomonas aeruginosa MTCC 424 after 24 hr by broth dilution method", "conditions": "MTCC 424, 24 h"}, "Escherichia coli [11]": {"test_system": "Escherichia coli", "assay": "Antibacterial activity against Escherichia coli MTCC 1573 after 24 hr by broth dilution method", "conditions": "MTCC 1573, 24 h"}, "Penicillium chrysogenum [12]": {"test_system": "Penicillium chrysogenum", "assay": "Antifungal activity against Penicillium chrysogenum MTCC 161 at 500 ug/ml after 18 hr by cup-plate method", "conditions": "MTCC 161, 18 h, read-out: DIZ"}, "Micrococcus luteus [13]": {"test_system": "Micrococcus luteus", "assay": "Antibacterial activity against Micrococcus luteus MTCC 1538 after 24 hr by broth dilution method", "conditions": "MTCC 1538, 24 h"}, "Bacillus subtilis [14]": {"test_system": "Bacillus subtilis", "assay": "Antibacterial activity against Bacillus subtilis MTCC 441 at 200 ug/ml after 18 hr by cup plate method", "conditions": "MTCC 441, 18 h, read-out: DIZ"}, "Staphylococcus aureus [15]": {"test_system": "Staphylococcus aureus", "assay": "Antibacterial activity against Staphylococcus aureus MTCC 1430 at 200 ug/ml after 18 hr by cup-plate method", "conditions": "MTCC 1430, 18 h, read-out: DIZ"}, "Pseudomonas aeruginosa [16]": {"test_system": "Pseudomonas aeruginosa", "assay": "Antibacterial activity against Pseudomonas aeruginosa MTCC 424 at 100 ug/ml after 18 hr by cup-plate method", "conditions": "MTCC 424, 18 h, read-out: DIZ"}, "Escherichia coli [17]": {"test_system": "Escherichia coli", "assay": "Antibacterial activity against Escherichia coli MTCC 1573 at 1000 ug/ml after 18 hr by cup-plate method", "conditions": "MTCC 1573, 18 h, read-out: DIZ"}, "Bacillus pumilus [18]": {"test_system": "Bacillus pumilus", "assay": "Antibacterial activity against Bacillus pumilus MTCC 1456 after 24 hr by broth dilution method", "conditions": "MTCC 1456, 24 h"}, "Bacillus subtilis [19]": {"test_system": "Bacillus subtilis", "assay": "Antibacterial activity against Bacillus subtilis MTCC 441 at 100 ug/ml after 18 hr by cup plate method", "conditions": "MTCC 441, 18 h, read-out: DIZ"}, "Micrococcus luteus [20]": {"test_system": "Micrococcus luteus", "assay": "Antibacterial activity against Micrococcus luteus MTCC 1538 at 1500 ug/ml after 18 hr by cup-plate method", "conditions": "MTCC 1538, 18 h, read-out: DIZ"}, "Aspergillus niger": {"test_system": "Aspergillus niger", "assay": "Antifungal activity against Aspergillus niger MTCC 2546 at 500 ug/ml after 18 hr by cup-plate method", "conditions": "MTCC 2546, 18 h, read-out: DIZ"}, "Pseudomonas fluorescens [21]": {"test_system": "Pseudomonas fluorescens", "assay": "Antibacterial activity against Pseudomonas fluorescens MTCC 2421 at 100 ug/ml after 18 hr by cup-plate method", "conditions": "MTCC 2421, 18 h, read-out: DIZ"}, "Pseudomonas aeruginosa [22]": {"test_system": "Pseudomonas aeruginosa", "assay": "Antibacterial activity against Pseudomonas aeruginosa MTCC 424 at 1000 ug/ml after 18 hr by cup-plate method", "conditions": "MTCC 424, 18 h, read-out: DIZ"}, "Penicillium chrysogenum [23]": {"test_system": "Penicillium chrysogenum", "assay": "Antifungal activity against Penicillium chrysogenum MTCC 161 at 200 ug/ml after 18 hr by cup-plate method", "conditions": "MTCC 161, 18 h, read-out: DIZ"}, "Staphylococcus aureus [24]": {"test_system": "Staphylococcus aureus", "assay": "Antibacterial activity against Staphylococcus aureus MTCC 1430 at 1500 ug/ml after 18 hr by cup-plate method", "conditions": "MTCC 1430, 18 h, read-out: DIZ"}, "Penicillium chrysogenum [25]": {"test_system": "Penicillium chrysogenum", "assay": "Antifungal activity against Penicillium chrysogenum MTCC 161 at 100 ug/ml after 18 hr by cup-plate method", "conditions": "MTCC 161, 18 h, read-out: DIZ"}, "Escherichia coli [26]": {"test_system": "Escherichia coli", "assay": "Antibacterial activity against Escherichia coli MTCC 1573 at 200 ug/ml after 18 hr by cup-plate method", "conditions": "MTCC 1573, 18 h, read-out: DIZ"}},
  "data": [
    {"smiles": "O=c1c(/C=N/c2nc[nH]n2)coc2ccccc12", "values": [
      {"measurement": "zone of inhibition at 1000 µg/mL", "setting": "Micrococcus luteus [1]", "result": 18, "unit": "mm"},
      {"measurement": "zone of inhibition at 100 µg/mL", "setting": "Staphylococcus aureus [2]", "result": 11, "unit": "mm"},
      {"measurement": "zone of inhibition at 500 µg/mL", "setting": "Escherichia coli [3]", "result": 15, "unit": "mm"},
      {"measurement": "zone of inhibition at 500 µg/mL", "setting": "Pseudomonas fluorescens [4]", "result": 17, "unit": "mm"},
      {"measurement": "zone of inhibition at 1000 µg/mL", "setting": "Staphylococcus aureus [5]", "result": 17, "unit": "mm"},
      {"measurement": "zone of inhibition at 1000 µg/mL", "setting": "Pseudomonas fluorescens [6]", "result": 19, "unit": "mm"},
      {"measurement": "zone of inhibition at 1500 µg/mL", "setting": "Escherichia coli [7]", "result": 18, "unit": "mm"},
      {"measurement": "zone of inhibition at 200 µg/mL", "setting": "Pseudomonas fluorescens [8]", "result": 15, "unit": "mm"},
      {"measurement": "zone of inhibition at 100 µg/mL", "setting": "Bacillus pumilus [9]", "result": 14, "unit": "mm"},
      {"measurement": "MIC", "setting": "Pseudomonas aeruginosa [10]", "result": 300, "unit": "µg/mL"},
      {"measurement": "MIC", "setting": "Escherichia coli [11]", "result": 400, "unit": "µg/mL"},
      {"measurement": "zone of inhibition at 500 µg/mL", "setting": "Penicillium chrysogenum [12]", "result": 19, "unit": "mm"},
      {"measurement": "MIC", "setting": "Micrococcus luteus [13]", "result": 300, "unit": "µg/mL"},
      {"measurement": "zone of inhibition at 200 µg/mL", "setting": "Bacillus subtilis [14]", "result": 16, "unit": "mm"},
      {"measurement": "zone of inhibition at 200 µg/mL", "setting": "Staphylococcus aureus [15]", "result": 13, "unit": "mm"},
      {"measurement": "zone of inhibition at 100 µg/mL", "setting": "Pseudomonas aeruginosa [16]", "result": 14, "unit": "mm"},
      {"measurement": "zone of inhibition at 1000 µg/mL", "setting": "Escherichia coli [17]", "result": 16, "unit": "mm"},
      {"measurement": "MIC", "setting": "Bacillus pumilus [18]", "result": 400, "unit": "µg/mL"},
      {"measurement": "zone of inhibition at 100 µg/mL", "setting": "Bacillus subtilis [19]", "result": 12, "unit": "mm"},
      {"measurement": "zone of inhibition at 1500 µg/mL", "setting": "Micrococcus luteus [20]", "result": 23, "unit": "mm"},
      {"measurement": "zone of inhibition at 500 µg/mL", "setting": "Aspergillus niger", "result": 19, "unit": "mm"},
      {"measurement": "zone of inhibition at 100 µg/mL", "setting": "Pseudomonas fluorescens [21]", "result": 13, "unit": "mm"},
      {"measurement": "zone of inhibition at 1000 µg/mL", "setting": "Pseudomonas aeruginosa [22]", "result": 18, "unit": "mm"},
      {"measurement": "zone of inhibition at 200 µg/mL", "setting": "Penicillium chrysogenum [23]", "result": 17, "unit": "mm"},
      {"measurement": "zone of inhibition at 1500 µg/mL", "setting": "Staphylococcus aureus [24]", "result": 19, "unit": "mm"},
      {"measurement": "zone of inhibition at 100 µg/mL", "setting": "Penicillium chrysogenum [25]", "result": 15, "unit": "mm"},
      {"measurement": "zone of inhibition at 200 µg/mL", "setting": "Escherichia coli [26]", "result": 14, "unit": "mm"}
    ]}
  ]
}
